According to PMC5698177 (Nature chemical biology, 2017):

Tested on: chPylRS
Test: aminoacylation of […]-labeled tRNA
Type: biochemical, Methanosarcina mazei; Methanosarcina barkeri
Details: read-out: KM (mM), ncAA; M. mazei tRNA(Pyl) transcript, 10 mM ATP, 10 mM MgCl2, pH 7.2, 37 °C

SMILES | Km [mM]
C[C@@H]1CC=N[C@H]1C(=O)NCCCC[C@H](N)C(=O)O [compound 1, Pyl] | 0.0076 ± 0.0002
CC(C)(C)OC(=O)NCCCC[C@H](N)C(=O)O [compound 12, BocK] | 2.91 ± 0.1
